Experiment [1] relates to passive cutaneous anaphylaxis reaction. As to the kind of experiment: Passive cutaneous anaphylaxis reaction. The class given is in vivo, rat. The conditions noted are these: for % inhibition: reduction of coloured surface; for ED50: Rattus norvegicus. The method, then:
The method used is that described by MOTA I in "Immunology" 1964, 7, Page 681. This method consists of sensitizing rats by 4 intradermal injections of 0.1 ml rat antiserum. The antiserum is obtained from animals treated with a mixture of ovalbumin and bordetella pertussis. 72 hours after sensitization, the product to be studied and 1 ml per rat (IV) of a 0.25% solution of Evans blue+5 mg/ml ovalbumin in an isotonic aqueous solution of […] sodium chloride are administered to the animals intravenously or intraperitoneally. Thirty minutes after this last injection, the animals are killed and one measures the surface area of each bruise corresponding to the point of injection of the antiserum. The results are expressed as a percentage reduction of the coloured surface. The results are given in Table III hereafter in which the results obtained with disodium cromoglycate (used intravenously) are also shown by way of comparison.

Experiment [2] deals with histamine. Description: Histamine bronchoconstrictor aerosol (antihistamine activity). Type of experiment: in vivo, guinea pig. Particulars: for % protection: animals without apneic crisis within 5 minutes. The procedure:
Batches of 6 guinea pigs weighing from 200 to 250 g are exposed to an aerosol of 0.2% histamine in an aqueous solution, in a small chamber for 5 minutes. Two aerosols are used at an interval of 4 hours. The product tested is administered intraperitoneally 30 minutes before the use of the second aerosol.

Experiment [3] deals with histamine. Description: Action with regard to a LD100 of histamine (protection from mortality). The conditions noted are these: for % protection: mortality caused by histamine, 1 hour. Type of experiment: in vivo, guinea pig. The method, then:
Male tricolour guinea pigs weighing 400 to 500 g receive the product studied intraperitoneally. 30 minutes later, 800 γ/kg histamine, or the LD 100 in physiological solution are injected intraveinously.
The animals are kept under observation for 1 hour.

Molecules are shown by their SMILES.

Take `O=C(O)c1cc(=O)c2c(OCC(O)COc3cccc4oc(C(=O)O)cc(=O)c34)cccc2o1` [Disodium cromoglycate, disodium cromoglycate]: the “Mean Surface area” value is 27.86 ± 3.82 mm^2 in experiment [1] (IV, 0.15 mg/kg, control 31.77 ± 3.16); 30.5 ± 2.59 mm^2 in experiment [1] (IV, 0.31 mg/kg, control 31.77 ± 3.16); 35.42 ± 5.02 mm^2 in experiment [1] (IV, 0.625 mg/kg, control 72.46 ± 4.37); 2.30 ± 1.07 mm^2 in experiment [1] (IV, 1.25 mg/kg, control 31.77 ± 3.16); 0.23 ± 0.23 mm^2 in experiment [1] (IV, 2.5 mg/kg, control 31.77 ± 3.16). For the same molecule, the “% inhibition” value worked out at 12% in experiment [1] (IV, 0.15 mg/kg, T ns); 4% in experiment [1] (IV, 0.31 mg/kg, T ns); 51% in experiment [1] (IV, 0.625 mg/kg, T ***); 93% in experiment [1] (IV, 1.25 mg/kg, T ***); 99% in experiment [1] (IV, 2.5 mg/kg, T ***). Moreover, the 50% effect level in experiment [1] (iv) (ED50) was put at a dose of 0.64 mg/kg.

For the molecule `CN1CCN(C2=Nc3ccccc3Sc3ncccc32)CC1` [Example 2, 5-(1'-methyl-4'-piperazinyl)pyrido[2,3-b][1,5]benzothiazepine], the “Mean Surface area” value in experiment [1] (I.P., 0.125 mg/kg, control 66.7 ± 2.62) came out at 54.4 ± 3.26 mm^2; in experiment [1] (I.P., 0.5 mg/kg, control 90.8 ± 5.92), 46.3 ± 3.78 mm^2; in experiment [1] (I.P., 1 mg/kg, control 66.7 ± 2.62), 25.1 ± 3.45 mm^2. For the same molecule, the “% inhibition” value in experiment [1] (I.P., 0.125 mg/kg, T **) came out at 18%; in experiment [1] (I.P., 0.5 mg/kg, T ***), 49%; in experiment [1] (I.P., 1 mg/kg, T ***) it was 62%. Besides, the ED50 in experiment [1] (ip, I.P.) came out at 0.57 mg/kg; in the experiment with histamine [2] (Cavia porcellus, ip, intraperitoneally, 0.2% histamine aerosol), 0.155 mg/kg; in the experiment on histamine [3] (Cavia porcellus, ip, intraperitoneally, 800 γ/kg histamine (LD 100) intravenously) it was 0.12 mg/kg. The “% protection” value was 17% with histamine [2] (0.062 mg/kg intraperitoneally); 33% in the experiment with histamine [2] (0.125 mg/kg intraperitoneally); 50% in the experiment on histamine [2] (0.250 mg/kg intraperitoneally); 100% in the experiment with histamine [2] (0.500 mg/kg intraperitoneally); 0% with histamine [3] (0.062 mg/kg intraperitoneally); 60% with histamine [3] (0.125 mg/kg intraperitoneally). In addition, in the experiment on histamine [3] (0.250 mg/kg intraperitoneally), the “% protection” value is listed as 100%.
